Data published in ChEMBL document CHEMBL1201862, “PubChem BioAssay data set” (2004).
Calls of active or inactive are those of the source.

Tests used:
Caspase-3 = target: T1, Caspase-3 (Homo sapiens, UniProt P42574); assay type: functional;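 further: Dose-response selectivity test against caspase-3 for candidate inhibitors of sentrin-specific proteases (SENPs)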
T1 sequence (P42574 whole entry): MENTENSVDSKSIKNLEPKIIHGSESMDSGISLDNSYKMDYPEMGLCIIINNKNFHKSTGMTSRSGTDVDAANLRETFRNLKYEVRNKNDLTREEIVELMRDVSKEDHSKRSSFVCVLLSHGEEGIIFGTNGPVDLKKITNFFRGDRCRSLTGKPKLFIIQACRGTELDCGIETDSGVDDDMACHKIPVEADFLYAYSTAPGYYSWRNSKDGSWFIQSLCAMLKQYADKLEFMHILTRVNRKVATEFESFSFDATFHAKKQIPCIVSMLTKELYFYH

[1] = target: T2, Sentrin-specific protease 8 (Homo sapiens, UniProt Q96LD8); assay type: functional;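 further: luminescence read-out of SENP8 inhibition, dose-response confirmation following an ultra-high-throughput screen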
T2 sequence (Q96LD8 whole entry): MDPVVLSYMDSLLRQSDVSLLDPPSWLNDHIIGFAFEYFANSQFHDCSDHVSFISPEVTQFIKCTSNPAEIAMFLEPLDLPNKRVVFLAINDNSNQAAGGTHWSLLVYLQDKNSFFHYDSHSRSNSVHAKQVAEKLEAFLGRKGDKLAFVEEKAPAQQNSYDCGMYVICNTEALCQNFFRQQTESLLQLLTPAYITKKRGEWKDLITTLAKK

[2] = target: T3, Sentrin-specific protease 6 (Homo sapiens, UniProt Q9GZR1); assay type: functional;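 further: Luminescence-based dose-response confirmatory assay of SENP6 inhibition, following up an ultra-high-throughput screen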
T3 sequence (Q9GZR1 whole entry): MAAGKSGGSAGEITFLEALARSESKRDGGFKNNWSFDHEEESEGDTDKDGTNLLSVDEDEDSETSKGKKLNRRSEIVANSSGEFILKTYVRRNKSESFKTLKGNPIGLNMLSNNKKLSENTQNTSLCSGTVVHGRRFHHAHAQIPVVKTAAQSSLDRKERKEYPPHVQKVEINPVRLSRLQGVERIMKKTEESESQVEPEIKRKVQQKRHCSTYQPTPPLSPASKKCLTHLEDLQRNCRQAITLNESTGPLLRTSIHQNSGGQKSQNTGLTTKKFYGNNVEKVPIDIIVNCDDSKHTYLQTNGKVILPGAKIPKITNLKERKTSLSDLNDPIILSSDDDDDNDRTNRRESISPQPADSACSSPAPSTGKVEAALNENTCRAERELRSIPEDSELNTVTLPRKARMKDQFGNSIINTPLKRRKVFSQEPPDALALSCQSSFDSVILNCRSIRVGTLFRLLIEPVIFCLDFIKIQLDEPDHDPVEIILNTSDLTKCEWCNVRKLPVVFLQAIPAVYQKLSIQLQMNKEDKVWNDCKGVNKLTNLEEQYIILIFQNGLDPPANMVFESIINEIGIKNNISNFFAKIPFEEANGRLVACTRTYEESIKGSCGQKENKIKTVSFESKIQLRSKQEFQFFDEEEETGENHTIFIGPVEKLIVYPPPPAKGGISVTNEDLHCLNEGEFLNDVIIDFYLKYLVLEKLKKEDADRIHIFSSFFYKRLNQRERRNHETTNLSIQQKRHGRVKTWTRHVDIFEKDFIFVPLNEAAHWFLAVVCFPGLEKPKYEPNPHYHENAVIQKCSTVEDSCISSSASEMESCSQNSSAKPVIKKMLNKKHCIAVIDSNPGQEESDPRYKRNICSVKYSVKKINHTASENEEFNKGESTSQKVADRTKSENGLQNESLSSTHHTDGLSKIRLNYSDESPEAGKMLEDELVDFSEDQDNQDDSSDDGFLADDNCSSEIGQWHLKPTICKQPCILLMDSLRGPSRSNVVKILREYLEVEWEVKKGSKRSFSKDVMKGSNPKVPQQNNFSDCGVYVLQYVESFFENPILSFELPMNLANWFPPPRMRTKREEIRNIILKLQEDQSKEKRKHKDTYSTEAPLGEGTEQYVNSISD

[3] = target: T4, Sentrin-specific protease 7 (Homo sapiens, UniProt Q9BQF6); assay type: functional;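 further: Luminescence-based dose-response confirmation of ultra-high-throughput screening hits, measuring inhibition of SENP7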
T4 sequence (Q9BQF6 whole entry): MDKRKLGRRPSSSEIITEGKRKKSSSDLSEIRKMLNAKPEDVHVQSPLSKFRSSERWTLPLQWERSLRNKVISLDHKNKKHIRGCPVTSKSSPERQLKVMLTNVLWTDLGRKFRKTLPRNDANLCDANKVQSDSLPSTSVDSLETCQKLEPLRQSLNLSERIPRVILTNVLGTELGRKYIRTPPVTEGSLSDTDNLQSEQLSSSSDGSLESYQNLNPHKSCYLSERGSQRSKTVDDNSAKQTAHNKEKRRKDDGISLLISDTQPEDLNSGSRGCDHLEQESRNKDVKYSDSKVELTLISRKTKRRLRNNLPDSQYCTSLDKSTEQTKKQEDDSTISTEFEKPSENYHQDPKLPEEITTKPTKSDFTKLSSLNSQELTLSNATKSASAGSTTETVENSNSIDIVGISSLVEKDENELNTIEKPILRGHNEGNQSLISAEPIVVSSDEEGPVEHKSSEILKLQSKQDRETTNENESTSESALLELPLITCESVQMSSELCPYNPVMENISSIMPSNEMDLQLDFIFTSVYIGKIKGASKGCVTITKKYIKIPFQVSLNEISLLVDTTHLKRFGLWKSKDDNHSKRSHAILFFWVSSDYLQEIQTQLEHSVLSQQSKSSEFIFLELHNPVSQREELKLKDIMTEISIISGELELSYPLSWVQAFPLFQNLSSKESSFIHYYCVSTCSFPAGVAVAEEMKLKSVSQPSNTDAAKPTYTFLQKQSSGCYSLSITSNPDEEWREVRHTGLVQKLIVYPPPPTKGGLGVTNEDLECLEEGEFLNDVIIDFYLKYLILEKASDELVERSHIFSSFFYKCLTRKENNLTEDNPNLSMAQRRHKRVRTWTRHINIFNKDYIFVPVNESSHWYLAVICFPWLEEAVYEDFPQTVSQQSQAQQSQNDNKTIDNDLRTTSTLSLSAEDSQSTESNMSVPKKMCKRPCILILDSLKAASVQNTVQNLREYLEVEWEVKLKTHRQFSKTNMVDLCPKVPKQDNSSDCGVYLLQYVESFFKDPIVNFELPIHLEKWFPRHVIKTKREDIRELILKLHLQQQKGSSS

BJ [4] = test: cytotoxicity toward BJ-TERT-LT-ST fibroblasts, dose response, cell-based, RAS-independent, luminescence (AID 1935); assay type: functional; conditions: Homo sapiens;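 further: BJ fibroblasts immortalized with TERT plus LT and ST oncogenes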
BJ [5] = test: cells; assay type: functional, cell-based; conditions: Homo sapiens
INS1 = test: beta cell apoptosis inhibitors, cytokine rescue, dose response, luminescence, retest (AID 449756); assay type: functional, cell-based; conditions: Rattus norvegicus;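 further: cell death triggered by IL-1 beta plus TNF-alpha plus IFN-gamma mixture; protective hits raise ATP signal compared with cytokine alone wells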
[6] = growth suppression of beta-catenin-knockout colon cells, dose response, cell-based, HCT116, human colon tumor (AID 1045); assay type: functional;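 further: HCT116 colon tumor cells with beta catenin knocked out; cells exposed to compound for 60 hours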

Question: With `O=[N+]([O-])c1ccc(O)c(C2=NNC(c3ccccc3F)C2)c1` (configuration not stated) as the molecule, how does the IC50 (Caspase-3) read?
Answer: The IC50 was 68.6 µM (active).

Question: And the IC50 [1]?
Answer: Its IC50 is 54.5 µM (active).

Question: What about the IC50 [2] of the same molecule?
Answer: Its IC50 is 43.5 µM (active).

Question: And the IC50 [3]?
Answer: The IC50 was 41.6 µM (active).

Question: Which IC50 (Caspase-3) does the source give for `Cc1oc2c(c1C(=O)N1CCC(C)CC1)C(=O)c1ccccc1C2=O` here?
Answer: The IC50 was 10.2 µM (active).

Question: What about the EC50 (BJ [4]) of the same molecule?
Answer: The EC50 was > 75 µM (not active).

Question: And the EC50 (BJ [5])?
Answer: The EC50 was 13.3 µM (active).

Question: And the IC50 [1]?
Answer: Its IC50 is 23.6 µM (active).

Question: And the IC50 [2]?
Answer: The IC50 was 13.7 µM (active).

Question: What about the IC50 [3] of the same molecule?
Answer: Its IC50 is 40.6 µM (active).

Question: What about the AC50 (INS1) of the same molecule?
Answer: The AC50 was 2.01 µM (active).

Question: What about the EC50 [6] of the same molecule?
Answer: The EC50 was 1.86 µM (active).
